Source: PubChem BioAssay AID1626 (SRMLSC, 2009)
pIC50: −log10 of the molar value.

Tested on: M. tuberculosis H37Rv growth inhibition
Experiment: M. tuberculosis H37Rv growth inhibitors, H37Rv strain (AID 1626)
Settings: for IC90: measured here: IC90 against H37Rv; for CC50: measured here: Vero cell cytotoxicity

Structure (SMILES) | pIC50 | IC90 | CC50
O=C(Nc1cc(C(F)(F)F)cc(C(F)(F)F)c1)Nc1cnn(-c2ccc([N+](=O)[O-])cc2)c1C(F)(F)F | 6.17 | 0.938 µM | 2.76 µM
O=C(CSCC(=O)N1CCCCC1)Nc1nc(-c2ccc(Cl)s2)cs1 | 4.36 | > 100 µM | –
CCOC(=O)c1c(C)oc2ccc(OC(=O)c3cccs3)cc12 | 5.68 | 13.6 µM | –
O=c1oc2ccccc2nc1/C=C(\O)c1ccccc1 | 5.18 | > 100 µM | –
O=C(NCc1ccco1)c1cnn2c1NC(c1ccc(Br)cc1)CC2C(F)(F)F (centres undefined) | 5.82 | 1.71 µM | > 40 µM
Cc1ccn2c(NC3CCCC3)c(-c3ccccn3)nc2c1 | 5.50 | 5.24 µM | 8.93 µM
CCCCOC(=O)c1ccc(NC(=O)C(=O)NCc2ccccn2)cc1 | – | > 100 µM | –
CC(C)Cc1c(O)nc(SCC(=O)Nc2ccc3c(c2)CCC3)[nH]c1=O | – | > 100 µM | –
COc1ccc(NC(=O)CCc2nc(-c3ccc(C)cc3)no2)cc1Cl | 5.45 | > 100 µM | > 40 µM
O=C(CC(SCc1ccco1)c1ccc(O)cc1)c1cccs1 (centres undefined) | 4.56 | > 100 µM | > 40 µM
CC1CCN(C(=O)COC(=O)CCc2c[nH]c3ccccc23)CC1 | 6.47 | > 100 µM | –
CC(=O)OCCCN1c2ccccc2Nc2nnc(-c3ccccc3)cc21 | – | > 100 µM | > 40 µM
COc1ccc(Cn2c(SCc3ccccc3C)nc3cc(OC)c(OC)cc3c2=N)cc1 | 5.65 | 3.02 µM | 6.78 µM
CCCc1ccc(-c2cc(C(=O)NC3=NCCS3)c3ccccc3n2)cc1 | – | > 100 µM | > 40 µM
CCOc1ccc(N/C=C\C(=O)c2ccc3c(c2)OCO3)cc1 | 5.34 | > 100 µM | –
CCC(C)c1ccccc1NC(=O)CN1CCN(C/C=C/c2ccccc2)CC1 (centres undefined) | 4.66 | 35.1 µM | –
N=C1SCC(=O)N1c1ncc(Cc2ccccc2Cl)s1 | > 6.41 | 15.9 µM | > 40 µM
COc1ccc(NC(=O)c2ccc(COCC(F)(F)C(F)F)cc2)cc1 | – | > 100 µM | –
Cc1ccc(Nc2cc(C)nc(NCc3ccccc3)n2)cc1 | 5.17 | 9.45 µM | > 40 µM
NC1CCN(c2c(F)cc3c(=O)c(C(=O)O)cn(C4CC4)c3c2Cl)C1 (centres undefined) | > 6.41 | < 0.391 µM | –
COc1ccc(NCN2C(=O)CCC2=O)cc1 | – | > 100 µM | –
CC(C)c1ccc(CNC(=O)CSCC(=O)Nc2ccc3ccccc3c2)cc1 | 4.74 | > 100 µM | –

Structure (SMILES) | pIC50 | IC90 | CC50
COc1ccc(CCNc2cc(C)nc3c(-c4ccccc4)c(C)nn23)cc1OC | 5.45 | 8.82 µM | –
CCOc1ccc(NCc2nnc(SCc3ccc(Cl)cc3)n2-c2ccccc2)cc1 | – | – | > 40 µM
Oc1ccc2ccccc2c1CNc1cnc2ccccc2c1 | 5.85 | > 100 µM | –
Cc1ccc(-c2c[n+](CC(=O)Nc3nc(-c4ccccc4)cs3)c3n2CCC3)cc1 | 5.11 | 16.1 µM | –
CCOc1ccc2nc(/N=C/c3c(C)[nH]n(-c4ccc(C)cc4)c3=O)sc2c1 | 5.04 | > 100 µM | > 40 µM
COc1ccc(NC2=NCC(Cc3ccc(Br)cc3)S2)cc1 (centres undefined) | 4.99 | 15.9 µM | > 40 µM
O=C(COc1cccc(Cl)c1)Nc1ccc2c(c1)CCC2 | 4.65 | > 100 µM | –
O=c1[nH][nH]c(-c2ccccc2O)c1C(C[N+](=O)[O-])c1ccc(Cl)cc1Cl (centres undefined) | 4.98 | 15 µM | > 40 µM
Cc1nc(C)c(/C(O)=C/c2nc3ccccc3oc2=O)s1 | > 6.71 | > 100 µM | –
[O-][n+]1onc2c3cc(-c4ccccc4)nnc3ccc21 | > 6.71 | 0.443 µM | –
CCCc1cc(-c2nc(-c3ccc(Br)cc3)cs2)ccn1 | 5.25 | 10.4 µM | –
COc1ccccc1-c1nnc(NC(=O)C2=COCCO2)o1 | 5.05 | 15.5 µM | > 40 µM
CC(C)NCC(O)Cn1c2c(c3ccccc31)CCc1c-2cnn1-c1ccccc1 (centres undefined) | 4.99 | 13.6 µM | 7.97 µM
CCOC(=O)CSc1nnc(-c2cc(OC)c(OC)c(OC)c2)o1 | 5.79 | 4.38 µM | –
COCC(=O)Nc1ccc(Br)c(C)c1 | – | > 100 µM | –
CC(C)[C@H]1C(=O)O[C@H](C(C)C)C(=O)N(C)[C@@H](C(C)C)C(=O)O[C@H](C(C)C)C(=O)N(C)[C@@H](C(C)C)C(=O)O[C@H](C(C)C)C(=O)N1C | 5.14 | 8.9 µM | 12.3 µM
CCOC(=O)c1cc(-c2csc(-c3ccc(C(F)(F)F)cc3)n2)on1 | > 6.71 | 3.33 µM | –
Cc1sc2nc(CN(C(=O)NC3CCCCC3)C3CCCC3)[nH]c(=O)c2c1C | 5.21 | 26.3 µM | > 40 µM
N=c1c2c(-c3ccccc3)c(-c3ccccc3)n(Cc3ccco3)c2ncn1Cc1ccccc1 | 5.56 | 3.17 µM | 6.49 µM
CCCCc1ccc(C2C3=C(CC(C)(C)CC3=O)NC3=C2C(=O)c2ccccc23)cc1 (centres undefined) | 5.51 | > 100 µM | > 40 µM
O=C(Nc1nc(-c2cc(F)ccc2F)cs1)c1ccccn1 | 5.42 | 67.8 µM | 21.2 µM
COc1ccc(/C=C/C(=O)c2ccc(C)c([N+](=O)[O-])c2)cc1O | – | > 100 µM | 34.8 µM

Structure (SMILES) | pIC50 | IC90 | CC50
Cn1cc(CN2CCN(c3ccc(Cl)cn3)CC2)c(-c2ccccc2F)n1 | – | > 100 µM | –
COc1cccc2sc(Nc3nnc(-c4ccc(F)cc4)o3)nc12 | 5.04 | 11.8 µM | 16 µM
Cc1cc(Cl)n2ncc(-c3ccccc3)c2n1 | 4.24 | > 100 µM | > 40 µM
COc1ccc(CN2CCN(CC(O)Cn3c4ccccc4c4ccccc43)CC2)cc1 (centres undefined) | 5.27 | 8.3 µM | 15 µM
Cc1ccc(Nc2ccccc2N)cc1 | 5.84 | 1.66 µM | –
O=C(CCl)Oc1ccc2occ(C(=O)c3cccs3)c2c1 | – | > 100 µM | –
CCCCn1c(O)c(C(CC)=Nc2ccc(OCC)cc2)c(=O)[nH]c1=O | 5.10 | > 100 µM | > 40 µM
CN(CC(=O)Nc1ccc(Cl)c(Cl)c1)Cc1nnc(-c2ccc(F)cc2)o1 | 4.80 | 24.1 µM | –
CCOc1ccc(NC(=O)CCN2CCN(c3ccccc3)CC2)cc1 | – | > 100 µM | –
CCOc1ccc(N/C(C)=C/C(=O)c2ccc(C)o2)cc1 | 4.88 | > 100 µM | –
Nc1nnc(SCc2ccc(F)cc2)s1 | – | > 100 µM | –
COc1ccc(OCC(=O)Nc2ccc3nc(C)sc3c2)cc1 | 4.97 | > 100 µM | –
CCCCOC(=O)c1ccc(N=Nc2c(C)c(C#N)c(O)[nH]c2=O)cc1 | > 6.71 | > 100 µM | –
COC(=O)CSc1nc(N)c2c3c(sc2n1)CCCC3 | 5.60 | 4.12 µM | –
Cc1cc(C)cc(OCc2nnc(SCC(=O)OC3CCCCC3)o2)c1 | 5.74 | 11.8 µM | –
O=C(CSc1nnc(CNc2cccc(Cl)c2)o1)OC1CCCCC1 | 6.18 | 1.4 µM | –
C=C(C)C1Cc2c(C)nn(-c3nc(C)cc(C)n3)c2C1 (centres undefined) | 5.00 | > 100 µM | > 40 µM
CCOc1ccc(NC(=O)CCn2cccc2)cc1 | – | > 100 µM | –
CCCc1nnc(NC(=O)c2c(O)c3cccc4c3n(c2=O)CCC4)s1 | > 6.41 | < 0.391 µM | 25.6 µM
O=C(Oc1ccc(Cl)c2cccnc12)C12CC3CC(CC(C3)C1)C2 | 5.34 | 5.77 µM | > 40 µM
O=C(/C=C/c1cccc2ccccc12)c1ccncc1 | 5.09 | 12.7 µM | > 40 µM
Cc1ccc(Oc2nc(-c3ccccn3)nc3ccccc23)cc1 | 5.59 | 10.5 µM | 22.4 µM

Structure (SMILES) | pIC50 | IC90 | CC50
O=[N+]([O-])c1cc2cccnc2c2ncccc12 | 5.85 | 1.49 µM | 33 µM
CCCNC1=C(N(C(C)=O)c2cccc(F)c2)C(=O)c2ccccc2C1=O | 5.56 | 4.13 µM | 29.9 µM
O=C(/C=C/Nc1ccc(Oc2ccccc2Cl)cc1)c1ccco1 | – | > 100 µM | > 40 µM
Cc1cccc(C(=O)Nc2ccc(C(=O)/C=C/c3cccnc3)cc2)c1 | 5.22 | 9.07 µM | 22.3 µM
COc1ccc(C2=CC(c3c(C)nn(-c4ccccc4)c3Cl)n3nnnc3N2)cc1OC (centres undefined) | 5.05 | 14.1 µM | –
COc1ccccc1NC(CC(=O)c1ccccc1)C(=O)OCC(=O)c1ccc(Br)cc1 (centres undefined) | 4.86 | 21.1 µM | –
Cc1ccc2c(Cl)cc(Cl)c(OCC(=O)NC(C)(C)C)c2n1 | 4.93 | > 100 µM | > 40 µM
Cc1ccccc1N=Nc1ccc(O)c2ncccc12 | 4.68 | > 100 µM | 0.933 µM
CCN(CC(=O)NC(C)(C)C)C(=O)COc1c(Cl)cc(Cl)c2ccc(C)nc12 | 5.41 | 13.9 µM | 36.8 µM
Cc1ccc(S(=O)(=O)Nc2ccc(NC(=O)c3c(F)c(F)c(F)c(F)c3F)cc2)cc1 | – | – | 21.8 µM
CCCNC(=O)c1nnsc1S(=O)c1ccc(Cl)cc1 (centres undefined) | 5.06 | 10.5 µM | 8.53 µM
COC(=O)CCn1c(C)cc(C(=O)COc2ccccc2C(N)=O)c1C | 5.81 | 31.1 µM | > 40 µM
Cc1nn(-c2ccc([N+](=O)[O-])cc2)c2c1C(c1ccc(OC(F)F)cc1)N1C(=N2)C(=O)Nc2ccccc21 (centres undefined) | 5.33 | > 100 µM | > 40 µM
O=[N+]([O-])c1cc(C(F)(F)F)ccc1Oc1cccnc1[N+](=O)[O-] | 5.81 | 1.73 µM | –
Cc1ccc(/C=C/C(=O)C2C(=O)c3ccccc3C2=O)cc1 | 5.47 | 5.29 µM | > 40 µM
O=C1N=C(N2CCN(c3cccc4ccccc34)CC2)S/C1=C/c1cccs1 | – | – | > 40 µM
Cc1[nH]c2ccccc2c1C(=O)COC(=O)c1ccc([N+](=O)[O-])s1 | – | – | 31.8 µM
N#Cc1cnc2c(-c3ccccc3)c(-c3ccccc3)nn2c1N | 4.55 | > 100 µM | > 40 µM
OCCc1ccc(-c2ccc(Cl)cc2)o1 | 4.63 | > 100 µM | –
